The text below walks through data of PMC3475094, “Identification Of Small Molecule TRABID Deubiquitinase Inhibitors By Computation-Based Virtual Screen” (BMC Chemical Biology, 2012).

SMILES strings stand for the structures.

For this assay, the target named is T1, TRABID (Homo sapiens, UniProt Q9UGI0).
T1 construct: gene ZRANB1; full length TRABID
T1 sequence (Q9UGI0 1-708): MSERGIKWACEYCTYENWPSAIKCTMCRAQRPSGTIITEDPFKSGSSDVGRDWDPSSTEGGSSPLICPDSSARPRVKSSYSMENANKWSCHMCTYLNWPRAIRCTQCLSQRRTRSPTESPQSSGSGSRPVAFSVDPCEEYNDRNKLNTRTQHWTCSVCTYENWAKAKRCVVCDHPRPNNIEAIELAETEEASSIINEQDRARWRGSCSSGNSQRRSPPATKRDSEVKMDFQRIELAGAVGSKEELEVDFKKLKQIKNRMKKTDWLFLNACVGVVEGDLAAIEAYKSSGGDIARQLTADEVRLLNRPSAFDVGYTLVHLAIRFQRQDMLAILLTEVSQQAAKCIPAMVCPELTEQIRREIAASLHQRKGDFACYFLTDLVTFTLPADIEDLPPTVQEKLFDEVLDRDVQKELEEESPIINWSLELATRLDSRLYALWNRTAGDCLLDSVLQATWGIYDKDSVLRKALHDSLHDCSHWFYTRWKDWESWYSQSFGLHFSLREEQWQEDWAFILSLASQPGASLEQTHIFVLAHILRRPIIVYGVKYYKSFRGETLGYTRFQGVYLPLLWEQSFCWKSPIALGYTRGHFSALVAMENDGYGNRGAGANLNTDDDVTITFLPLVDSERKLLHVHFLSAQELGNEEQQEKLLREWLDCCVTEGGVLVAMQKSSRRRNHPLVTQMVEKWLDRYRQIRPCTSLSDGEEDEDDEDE
The assay is described as follows: Hexa-K63 ubiquitin cleavage assay, Western blot quantification. Type of assay: biochemical. For orientation: Immunoblotting shows a protein as a band on a membrane.

Take `Oc1cc(Br)c(O)cc1Br` [compound 133363, NSC133363]: 7.17 µM corresponded to half-maximal inhibition (IC50).

In turn, `Cc1cc(O)c(Cl)cc1O` [compound 29034, NSC29034] returned an IC50 of 7.54 µM.

A word on the IC50: it is the midpoint of a concentration-inhibition curve. The low end stands for inhibition by little substance, the high end for a need for much substance.
